For one experiment, the target named is T1, Top1cc (Homo sapiens, UniProt P11387).
T1 construct: endogenous in cells; host or cells: H460
T1 sequence (P11387 2-765 limits assumed): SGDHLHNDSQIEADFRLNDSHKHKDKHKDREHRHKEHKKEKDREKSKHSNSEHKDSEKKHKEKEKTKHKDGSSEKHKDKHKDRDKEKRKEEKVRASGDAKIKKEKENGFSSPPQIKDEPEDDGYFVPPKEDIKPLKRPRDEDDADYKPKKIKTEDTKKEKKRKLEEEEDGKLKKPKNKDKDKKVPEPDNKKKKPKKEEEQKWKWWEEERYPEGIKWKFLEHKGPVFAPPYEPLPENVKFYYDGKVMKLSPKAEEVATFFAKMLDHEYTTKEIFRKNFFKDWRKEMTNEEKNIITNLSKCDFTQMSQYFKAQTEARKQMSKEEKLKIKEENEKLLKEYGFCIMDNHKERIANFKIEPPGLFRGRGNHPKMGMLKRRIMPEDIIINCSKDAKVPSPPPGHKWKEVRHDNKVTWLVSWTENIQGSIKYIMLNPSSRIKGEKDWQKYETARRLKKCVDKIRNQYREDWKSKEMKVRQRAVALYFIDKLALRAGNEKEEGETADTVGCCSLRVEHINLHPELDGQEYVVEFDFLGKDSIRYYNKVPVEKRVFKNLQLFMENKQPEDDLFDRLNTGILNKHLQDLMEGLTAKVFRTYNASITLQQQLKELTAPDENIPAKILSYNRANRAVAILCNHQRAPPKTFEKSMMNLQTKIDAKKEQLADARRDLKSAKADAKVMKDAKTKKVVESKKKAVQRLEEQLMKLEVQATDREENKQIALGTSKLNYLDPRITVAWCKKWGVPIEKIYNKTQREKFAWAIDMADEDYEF
Kind of experiment: ICE assay for Top1-DNA adducts in H460 cells. The experiment is classed as cell-based. The text has this:
(§1) FIG. 3. DNM derivatives are dual Top1/Top2 inhibitors with different modes of inhibition. (a) Inhibition of decatenating ability of Top2α with increasing concentrations of ETP, 6DNM-NH3, 6DNM-Pyr, and Ph-6DNM-NH3. K, kinetoplast DNA; OC, open circular; R, relaxed. (b) Inhibition of relaxing ability of Top1 with increasing concentrations of CPT, 6DNM-NH3, 6DNM-Pyr, and Ph-6DNM-NH3. R, relaxed; S, supercoiled. (c) Detection of Top2a-DNA using the ICE Assay. Genomic DNA ([…]) of H460 cells treated with drugs (50 μM, 30 min) was applied to nitrocellulose membrane and immunoblotted for Top2a. (d) Detection of Top1-DNA adducts using ICE Assay. Same procedure as (c) using 1 μg of DNA. (e) Inhibition of ETP-induced poisoning of Top2a. H460 cells treated with indicated concentrations of inhibitor for 30 min prior to treatment with ETP (50 μM). Detection of Top2α as in (c).
(§2) The in vivo complex of enzyme (ICE) assay can be used to distinguish poisons from catalytic inhibitors. The ICE assay consists of isolating the genomic DNA of cells treated with small molecules in a manner the preserves covalent DNA-protein complexes and applying it to nitrocellulose membranes. Because topoisomerase poisons stabilize the cleavage complexes, DNA-protein complexes can be detected by immunoblotting for specific topoisomerases, whereas catalytic inhibitors produce no such result. To determine if DNM derivatives are acting as poisons or catalytic inhibitors, H460 human lung cells were exposed to 50 μM of the Top2 poison ETP, Ph-6DNM-NH3, 6DNM-NH3, and 6DNM-Pyr and assessed for their ability to stabilize Top2cc. […] In a similar fashion, next investigated was the mode of Top1 inhibition using the ICE assay (FIG. 3b).

The next experiment concerns the target Top2α (Homo sapiens, UniProt P11388). Kind of experiment: Top2α kDNA decatenation assay. In kind it is biochemical. Conditions: gel electrophoresis, FIG. 3a.
Text: as §1
FIG. 9. Mechanism of action studies: Topoisomerases form transient covalent complexes with DNA to modify DNA topology. Ph6DNM-NH3 and 6DNM-NH3 inhibit bacterial DNA gyrase and human topoisomerase II in vitro.
The ability of Ph-6DNM-NH3, 6DNM-NH3, and 6DNM-Pyr to inhibit Top2α was assessed using a decatenation assay. In this assay, Top2α is incubated with kinetoplast DNA (kDNA), a large network of catenated minicircles and maxicircles of DNA. As Top2α decatenates the kDNA, it releases supercoiled and relaxed DNA minicircles that are easily separated from the kDNA by gel electrophoresis.

The next experiment has as its system S. aureus. Description: Antibacterial MIC, microbroth dilution, S. aureus. The experiment is classed as cell-based. The procedure: (§3) To investigate this possibility, the antibacterial effects of the DNM derivatives was assessed against strains of E. coli, S. aureus, and MRSA using the microbroth dilution method (Table 2).
For experiment [1], the system named is MDA-MB-231 triple negative breast cancer cells. Kind of experiment: Antiproliferative SRB assay, MDA-MB-231. In kind it is cell-based. The conditions noted are these: SRB assay, 72 hour compound exposure, mean ± SEM; read-out: MDA-MB-231 IC50. How it is done: FIG. 1. […] Cell death measured by SRB assay after 72 hour of compound exposure (n≥3 biological replicates, error bars show SEM). IC50 values given as mean±SEM from ≥3 biological replicates.
To investigate the feasibility of developing a class of antitumor antibiotics based upon the DNM scaffold, the ability of the DNM to exert an antiproliferative effect against MDA-MB-231 breast cancer cells was evaluated.
(Sulforhodamine B stains cellular protein and so reports cell mass.)

In the next experiment the target is T2, Top2cc (Homo sapiens, UniProt P11388).
T2 construct: endogenous in cells; host or cells: H460
T2 sequence (P11388 whole entry): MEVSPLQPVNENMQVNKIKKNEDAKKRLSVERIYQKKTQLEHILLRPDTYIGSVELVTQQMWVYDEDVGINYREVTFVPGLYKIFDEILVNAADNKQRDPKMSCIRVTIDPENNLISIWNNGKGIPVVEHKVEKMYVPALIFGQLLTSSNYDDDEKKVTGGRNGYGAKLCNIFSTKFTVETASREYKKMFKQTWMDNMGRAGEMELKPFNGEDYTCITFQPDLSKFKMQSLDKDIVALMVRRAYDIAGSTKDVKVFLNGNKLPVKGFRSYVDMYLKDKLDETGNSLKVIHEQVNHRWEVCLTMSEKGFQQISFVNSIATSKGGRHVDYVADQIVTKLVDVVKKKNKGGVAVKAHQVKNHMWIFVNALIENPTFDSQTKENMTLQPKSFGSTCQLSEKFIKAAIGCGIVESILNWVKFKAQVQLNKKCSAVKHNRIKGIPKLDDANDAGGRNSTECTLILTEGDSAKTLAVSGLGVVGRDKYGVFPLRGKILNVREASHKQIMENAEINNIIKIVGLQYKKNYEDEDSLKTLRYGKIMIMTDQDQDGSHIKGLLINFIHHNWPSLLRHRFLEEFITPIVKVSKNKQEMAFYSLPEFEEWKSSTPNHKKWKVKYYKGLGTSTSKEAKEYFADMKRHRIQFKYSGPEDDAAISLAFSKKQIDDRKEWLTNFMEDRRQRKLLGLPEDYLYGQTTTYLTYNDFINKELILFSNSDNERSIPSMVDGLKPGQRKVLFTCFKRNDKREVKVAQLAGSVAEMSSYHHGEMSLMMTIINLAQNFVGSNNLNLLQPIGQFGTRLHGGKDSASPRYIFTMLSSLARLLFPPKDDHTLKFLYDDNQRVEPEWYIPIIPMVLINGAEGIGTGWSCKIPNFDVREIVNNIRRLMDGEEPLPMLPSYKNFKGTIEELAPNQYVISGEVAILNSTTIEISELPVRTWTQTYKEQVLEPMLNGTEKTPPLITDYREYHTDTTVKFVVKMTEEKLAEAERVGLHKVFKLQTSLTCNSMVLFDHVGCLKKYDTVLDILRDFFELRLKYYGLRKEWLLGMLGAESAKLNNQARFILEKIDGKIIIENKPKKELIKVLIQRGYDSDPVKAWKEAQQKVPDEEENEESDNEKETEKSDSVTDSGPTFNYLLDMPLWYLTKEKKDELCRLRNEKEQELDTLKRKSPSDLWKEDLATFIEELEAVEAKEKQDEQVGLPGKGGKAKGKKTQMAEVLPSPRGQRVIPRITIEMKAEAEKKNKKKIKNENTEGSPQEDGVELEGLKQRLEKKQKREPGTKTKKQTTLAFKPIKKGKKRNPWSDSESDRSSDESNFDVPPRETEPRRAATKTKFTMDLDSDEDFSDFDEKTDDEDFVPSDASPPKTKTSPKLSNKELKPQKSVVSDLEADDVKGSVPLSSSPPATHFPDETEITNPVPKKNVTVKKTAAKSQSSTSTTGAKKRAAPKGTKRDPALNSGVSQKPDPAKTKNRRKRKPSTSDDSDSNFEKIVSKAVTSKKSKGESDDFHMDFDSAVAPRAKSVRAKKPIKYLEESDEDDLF
Kind of experiment: ICE assay for Top2α-DNA complexes in H460 cells. In kind it is cell-based.
Text: as §1, §2

In another experiment the test system is MRSA. Description: Antibacterial MIC, microbroth dilution, MRSA. In kind it is cell-based, S. aureus. Conditions: Staphylococcus aureus, MRSA; microbroth dilution. The procedure: as §3
On the technique in general: Broth dilution looks for growth in wells or tubes with falling amounts of substance.

In a further experiment the target is E. coli TopoIV (Escherichia coli, UniProt P0AFI2+P20083). Description: E. coli TopoIV decatenation assay. The experiment is classed as biochemical. The source says:
(§4) FIG. 8. In vitro inhibitory activity of 6DNM-NH3, Ph-6DNM-NH3 against E. coli DNA gyrase and TopoIV.
(§5) DNM and its derivatives exert their antibacterial effects through inhibition of the DNA Gyrase.

In a further experiment the target is E. coli DNA Gyrase (Escherichia coli, UniProt P0AES4+P0AES6). Description: E. coli DNA Gyrase supercoiling assay. In kind it is biochemical.
E. coli DNA Gyrase, sequence (P0AES4 whole entry, one chain of several): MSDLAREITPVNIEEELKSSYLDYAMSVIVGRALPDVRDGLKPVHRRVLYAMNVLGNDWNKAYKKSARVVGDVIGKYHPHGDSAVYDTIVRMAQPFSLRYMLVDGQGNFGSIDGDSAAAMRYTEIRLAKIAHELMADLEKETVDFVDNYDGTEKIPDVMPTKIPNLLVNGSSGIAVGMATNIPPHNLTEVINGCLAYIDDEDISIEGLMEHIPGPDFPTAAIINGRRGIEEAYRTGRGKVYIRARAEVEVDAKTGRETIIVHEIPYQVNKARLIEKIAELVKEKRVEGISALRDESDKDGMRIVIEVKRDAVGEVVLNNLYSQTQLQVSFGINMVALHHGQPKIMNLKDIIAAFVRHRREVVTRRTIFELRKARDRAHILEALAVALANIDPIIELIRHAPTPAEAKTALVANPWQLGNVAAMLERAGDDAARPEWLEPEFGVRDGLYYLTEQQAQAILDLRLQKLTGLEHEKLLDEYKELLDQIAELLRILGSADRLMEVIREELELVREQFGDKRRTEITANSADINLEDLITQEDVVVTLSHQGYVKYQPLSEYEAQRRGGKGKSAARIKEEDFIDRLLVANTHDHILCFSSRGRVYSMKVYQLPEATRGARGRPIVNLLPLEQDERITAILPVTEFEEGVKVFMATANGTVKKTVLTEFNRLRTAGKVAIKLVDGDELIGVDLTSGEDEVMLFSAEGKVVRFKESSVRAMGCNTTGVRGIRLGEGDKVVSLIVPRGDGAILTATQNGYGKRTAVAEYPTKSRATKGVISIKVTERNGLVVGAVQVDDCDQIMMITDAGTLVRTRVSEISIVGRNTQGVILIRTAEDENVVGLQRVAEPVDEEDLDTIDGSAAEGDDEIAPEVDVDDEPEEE
Text: as §4, §5

The next experiment deals with E. coli. Kind of experiment: Antibacterial MIC, microbroth dilution, E. coli. In kind it is cell-based. How it is done: as §3
A further experiment deals with T3, Top1 (Homo sapiens, UniProt P11387).
T3 sequence (P11387 1-765): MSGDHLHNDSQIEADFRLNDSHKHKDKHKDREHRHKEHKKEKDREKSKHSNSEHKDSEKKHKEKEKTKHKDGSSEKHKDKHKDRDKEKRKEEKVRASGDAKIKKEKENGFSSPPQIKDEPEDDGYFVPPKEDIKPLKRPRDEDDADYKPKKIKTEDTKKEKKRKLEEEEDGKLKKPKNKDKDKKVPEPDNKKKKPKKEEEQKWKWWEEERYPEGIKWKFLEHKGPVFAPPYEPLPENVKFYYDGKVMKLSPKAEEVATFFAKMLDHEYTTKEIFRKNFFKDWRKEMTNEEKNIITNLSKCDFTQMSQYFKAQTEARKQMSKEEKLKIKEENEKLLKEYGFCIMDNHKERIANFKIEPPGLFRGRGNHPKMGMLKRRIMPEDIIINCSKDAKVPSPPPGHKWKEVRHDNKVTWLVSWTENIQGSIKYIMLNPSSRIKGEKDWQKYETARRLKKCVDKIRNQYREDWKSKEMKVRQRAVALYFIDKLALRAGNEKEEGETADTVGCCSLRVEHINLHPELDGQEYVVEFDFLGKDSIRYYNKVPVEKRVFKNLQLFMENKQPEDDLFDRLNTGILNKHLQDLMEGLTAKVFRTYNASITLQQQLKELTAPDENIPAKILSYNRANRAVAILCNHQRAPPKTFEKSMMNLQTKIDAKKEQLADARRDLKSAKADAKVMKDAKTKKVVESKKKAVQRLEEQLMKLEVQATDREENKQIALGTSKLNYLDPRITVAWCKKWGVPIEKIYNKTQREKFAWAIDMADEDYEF
Kind of experiment: Top1 DNA relaxation assay (pBR322). In kind it is biochemical. Conditions: supercoiled pBR322, FIG. 3b.
Text: as §1
To further investigate any mechanistic differences between these structurally related DNM analogues they were also evaluated against the other clinically-targeted mammalian topoisomerase, Top1, using a DNA relaxation assay in which purified Top1 relaxes supercoiled pBR322 and the two forms are separated by agarose gel electrophoresis.

Results on one molecule are retold here after patent US11274106B2, “Topoisomerase inhibitors with antibacterial and anticancer activity” (THE BOARD OF TRUSTEES OF THE UNIVERSITY OF ILLINOIS, priority 2017, dated 2022).

In brackets after ≈: the same amount, converted by molar mass.

In general, IC50 refers to the point on the concentration scale where inhibition reaches its midpoint. As usually defined, the MIC is the lowest concentration that inhibits growth of the organism.

Top2α, sequence (P11388 whole entry): as the sequence (P11388 whole entry) above
E. coli TopoIV, sequence (P0AFI2 whole entry): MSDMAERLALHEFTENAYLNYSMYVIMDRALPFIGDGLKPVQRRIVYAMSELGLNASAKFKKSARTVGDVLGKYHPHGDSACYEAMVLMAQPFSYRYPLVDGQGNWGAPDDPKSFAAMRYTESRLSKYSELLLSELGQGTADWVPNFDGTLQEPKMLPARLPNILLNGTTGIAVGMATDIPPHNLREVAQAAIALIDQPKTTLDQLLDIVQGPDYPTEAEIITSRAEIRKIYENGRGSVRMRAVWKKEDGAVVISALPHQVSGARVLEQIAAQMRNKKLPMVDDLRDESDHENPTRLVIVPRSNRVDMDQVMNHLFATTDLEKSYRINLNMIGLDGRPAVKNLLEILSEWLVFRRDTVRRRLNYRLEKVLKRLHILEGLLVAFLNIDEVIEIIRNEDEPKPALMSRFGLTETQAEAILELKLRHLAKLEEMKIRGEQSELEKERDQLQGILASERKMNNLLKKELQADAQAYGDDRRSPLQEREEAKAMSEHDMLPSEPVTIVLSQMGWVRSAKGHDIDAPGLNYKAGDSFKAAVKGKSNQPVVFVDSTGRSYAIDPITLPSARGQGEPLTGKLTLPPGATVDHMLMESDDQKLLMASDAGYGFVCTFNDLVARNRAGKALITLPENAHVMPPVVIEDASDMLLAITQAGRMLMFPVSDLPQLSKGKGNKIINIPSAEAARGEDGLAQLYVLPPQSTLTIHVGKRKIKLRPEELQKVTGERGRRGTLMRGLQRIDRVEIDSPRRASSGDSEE
E. coli TopoIV, sequence (P20083 whole entry): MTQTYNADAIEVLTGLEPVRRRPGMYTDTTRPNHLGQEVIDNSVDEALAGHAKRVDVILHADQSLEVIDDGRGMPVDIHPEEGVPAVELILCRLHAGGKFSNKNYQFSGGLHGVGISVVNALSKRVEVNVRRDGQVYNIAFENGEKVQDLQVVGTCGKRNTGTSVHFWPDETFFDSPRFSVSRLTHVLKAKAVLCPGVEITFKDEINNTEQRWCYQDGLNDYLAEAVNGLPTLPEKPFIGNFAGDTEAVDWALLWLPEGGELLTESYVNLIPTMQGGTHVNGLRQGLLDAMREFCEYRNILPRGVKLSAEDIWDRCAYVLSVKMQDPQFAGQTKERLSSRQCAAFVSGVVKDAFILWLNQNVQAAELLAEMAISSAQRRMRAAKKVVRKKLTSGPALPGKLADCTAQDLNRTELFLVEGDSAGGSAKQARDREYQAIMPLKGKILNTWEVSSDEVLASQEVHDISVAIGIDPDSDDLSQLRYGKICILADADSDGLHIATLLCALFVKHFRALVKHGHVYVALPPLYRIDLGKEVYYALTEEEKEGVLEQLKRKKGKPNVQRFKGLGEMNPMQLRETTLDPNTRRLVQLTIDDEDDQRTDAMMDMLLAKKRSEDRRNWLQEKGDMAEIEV

`Cc1cc(=O)n(C)c2c3c4c(cc12)c(C)cc(=O)n4C(CN)CO3` (stereo not drawn) [Compound 9]: at Top1cc (H460 cells, 50 μM, 30 min), the “Accumulation of Top1cc (ICE assay)” value is “neither 6DNM-NH3 nor 6DNM-Pyr, leads to the accumulation of Top1cc”. Moreover, the “Mode of topoisomerase inhibition” value on Top1cc (in vitro and cell culture experiments taken together) is reported as “dual Top1/Top2α catalytic inhibitors”. In addition, the “Inhibition of decatenating function of Top2α” value at Top2α is listed as “inhibit the decatenating function of Top2α in a dose-dependent manner”. In addition, the “S. aureus MIC” value with S. aureus was 0.5 µg/mL. The IC50 in [1] worked out at 220 ± 20 nM. Further, the “Accumulation of Top2cc (ICE assay)” value at Top2cc (50 μM) was “only ETP treatment resulted in the accumulation of Top2cc”. At Top2cc (pre-treatment 30 minutes prior to ETP (50 μM)), the “Effect on ETP-induced Top2cc” value is reported as “dose-dependent decrease in ETP-induced Top2cc”. Further, inhibition of growth in the experiment with MRSA (MIC) required 0.03 µg/mL (≈ 0.0922 µM). The “Inhibition of purified E. coli TopoIV” value at E. coli TopoIV is “able to inhibit”. Also, the “Inhibition of purified E. coli DNA Gyrase” value at E. coli DNA Gyrase is recorded as “able to inhibit”. In the experiment with E. coli, the “E. coli MIC” value was 0.5 µg/mL. Besides, the “Inhibition of Top1 relaxation” value on Top1 is “inhibit relaxation at submicromolar concentrations”.
